Data on one compound can be found in PMC9376891 (Nature Communications, 2022).

The term Kd denotes the free concentration of one partner at which half of the binding sites on the other are occupied at equilibrium, for simple one-to-one binding. A higher Kd goes with weaker binding.

The assay addresses Rae1_31-368-Nup98_157-213 heterodimer (Rae1-Nup98 complex) (Homo sapiens, UniProt P52948+P78406). Nature of the assay: biochemical. In kind it is binding.

Sequence of Rae1_31-368-Nup98_157-213 heterodimer (Rae1-Nup98 complex) (P78406 31-368 limits assumed): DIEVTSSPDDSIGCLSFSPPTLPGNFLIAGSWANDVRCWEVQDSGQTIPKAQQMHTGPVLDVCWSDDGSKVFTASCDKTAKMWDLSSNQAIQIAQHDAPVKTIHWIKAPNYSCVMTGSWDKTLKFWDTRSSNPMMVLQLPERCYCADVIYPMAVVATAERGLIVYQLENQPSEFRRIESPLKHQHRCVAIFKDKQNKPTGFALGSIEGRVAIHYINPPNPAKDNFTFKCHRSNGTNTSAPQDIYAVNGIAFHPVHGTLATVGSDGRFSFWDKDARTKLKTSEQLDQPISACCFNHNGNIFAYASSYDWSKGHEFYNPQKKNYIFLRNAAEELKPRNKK
Sequence of Rae1_31-368-Nup98_157-213 heterodimer (Rae1-Nup98 complex) (P52948 157-213 partner limits assumed): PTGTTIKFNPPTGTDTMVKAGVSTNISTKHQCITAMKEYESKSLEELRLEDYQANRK

For `CC[C@H](C)[C@H](NC(=O)[C@H](CCC(=O)O)NC(=O)[C@H](CCSC)NC(=O)[C@@H]1CCCN1C(=O)[C@H](CCC(N)=O)NC(=O)[C@H](CCC(=O)O)NC(=O)[C@H](CCC(=O)O)NC(=O)[C@H](CC(=O)O)NC(=O)[C@H](CC(C)C)NC(=O)[C@H](CCC(N)=O)NC(=O)[C@H](CO)NC(=O)[C@@H](N)Cc1ccc(O)cc1)C(=O)N[C@@H](CC(=O)O)C(=O)N[C@@H](Cc1ccc(O)cc1)C(=O)N1CCC[C@H]1C(=O)O` [SARS-CoV-2 ORF6 C3 + YP], the Kd is 0.2 µM.
